Experimental data: the supplement of paper PMC10307832

Legend:
Assay in all cases: relative viability (nuclei count vs DMSO), 5 days (fraction); higher = more cells survive
NCI-H1792 = test system: NCI-H1792
How it was run: (§1)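 Relative viability equals treated-well nuclei counts divided by vehicle-well nuclei counts. Counts came from 4× images of lung cancer cell lines grown in 1536-well plates for 5 days after pin-tool dosing on the day after seeding. Dosing used one drug alone or a fixed anchor-drug dose plus five library-drug doses (not always all listed) in √10 steps, and values are medians of duplicate plates.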

NCI-H1734 = test system: NCI-H1734
How it was run: as §1

HCC-366 = test system: HCC-366
How it was run: as §1

NCI-H2087 = test system: NCI-H2087
How it was run: as §1

NCI-H661 = test system: NCI-H661
How it was run: as §1

BEN = test system: BEN
How it was run: as §1

NCI-H2009 = test system: NCI-H2009
How it was run: as §1

SK-LU-1 = test system: SK-LU-1
How it was run: as §1

NCI-H596 = test system: NCI-H596
How it was run: as §1

HARA = test system: HARA
How it was run: as §1

LC-2-ad = test system: LC-2-ad
How it was run: as §1

NCI-H1437 = test system: NCI-H1437
How it was run: as §1

NCI-H1355 = test system: NCI-H1355
How it was run: as §1

LOU-NH91 = test system: LOU-NH91
How it was run: as §1

NCI-H2228 = test system: NCI-H2228
How it was run: as §1

HCC-827 = test system: HCC-827
How it was run: as §1

EKVX = test system: EKVX
How it was run: as §1

NCI-H647 = test system: NCI-H647
How it was run: as §1

NCI-H2405 = test system: NCI-H2405
How it was run: as §1

O=C(O)c1ccc(-c2c[nH]c3ncc(-c4ccccc4)cc23)cc1C1CCCC1 + CC(C)C[C@H](NC(=O)[C@H](Cc1ccccc1)NC(=O)c1cnccn1)B(O)O [Bortezomib] (partner 0.002 µM)
relative viability (NCI-H1792; first compound 0.04 µM): 0.933
relative viability (NCI-H1792; first compound 0.1265 µM): 1.13
relative viability (NCI-H1792; first compound 0.4 µM): 1.04
relative viability (NCI-H1792; first compound 1.265 µM): 0.912
relative viability (NCI-H1734; first compound 0.04 µM): 1.1
relative viability (NCI-H1734; first compound 0.1265 µM): 1.02
relative viability (NCI-H1734; first compound 0.4 µM): 0.83
relative viability (NCI-H1734; first compound 1.265 µM): 0.785
relative viability (HCC-366; first compound 0.04 µM): 1.05
relative viability (HCC-366; first compound 0.1265 µM): 1.12
relative viability (HCC-366; first compound 0.4 µM): 1.03
relative viability (HCC-366; first compound 1.265 µM): 1.06
relative viability (NCI-H2087; first compound 0.04 µM): 0.963
relative viability (NCI-H2087; first compound 0.1265 µM): 0.902
relative viability (NCI-H2087; first compound 0.4 µM): 0.715
relative viability (NCI-H2087; first compound 1.265 µM): 0.565
relative viability (NCI-H661; first compound 0.04 µM): 0.72
relative viability (NCI-H661; first compound 0.1265 µM): 0.791
relative viability (NCI-H661; first compound 0.4 µM): 0.82
relative viability (NCI-H661; first compound 1.265 µM): 0.935
relative viability (BEN; first compound 0.04 µM): 0.721
relative viability (BEN; first compound 0.1265 µM): 0.778
relative viability (BEN; first compound 0.4 µM): 0.907
relative viability (BEN; first compound 1.265 µM): 0.796
relative viability (NCI-H2009; first compound 0.04 µM): 0.997
relative viability (NCI-H2009; first compound 0.1265 µM): 0.966
relative viability (NCI-H2009; first compound 0.4 µM): 0.942
relative viability (NCI-H2009; first compound 1.265 µM): 0.794
relative viability (SK-LU-1; first compound 0.04 µM): 1.11
relative viability (SK-LU-1; first compound 0.1265 µM): 1.17
relative viability (SK-LU-1; first compound 0.4 µM): 1.15
relative viability (SK-LU-1; first compound 1.265 µM): 0.693
relative viability (NCI-H596; first compound 0.04 µM): 0.935
relative viability (NCI-H596; first compound 0.1265 µM): 0.982
relative viability (NCI-H596; first compound 0.4 µM): 1.02
relative viability (NCI-H596; first compound 1.265 µM): 1.06
relative viability (HARA; first compound 0.04 µM): 1.05
relative viability (HARA; first compound 0.1265 µM): 1.28
relative viability (HARA; first compound 0.4 µM): 1.1
relative viability (HARA; first compound 1.265 µM): 1.08
relative viability (LC-2-ad; first compound 0.04 µM): 1.04
relative viability (LC-2-ad; first compound 0.1265 µM): 1.1
relative viability (LC-2-ad; first compound 0.4 µM): 1.02
relative viability (LC-2-ad; first compound 1.265 µM): 0.779
relative viability (NCI-H1437; first compound 0.04 µM): 0.523
relative viability (NCI-H1437; first compound 0.1265 µM): 0.683
relative viability (NCI-H1437; first compound 0.4 µM): 0.446
relative viability (NCI-H1437; first compound 1.265 µM): 0.238
relative viability (NCI-H1355; first compound 0.04 µM): 1.18
relative viability (NCI-H1355; first compound 0.1265 µM): 1.29
relative viability (NCI-H1355; first compound 0.4 µM): 1.22
relative viability (NCI-H1355; first compound 1.265 µM): 1.04
relative viability (LOU-NH91; first compound 0.04 µM): 0.484
relative viability (LOU-NH91; first compound 0.1265 µM): 0.558
relative viability (LOU-NH91; first compound 0.4 µM): 0.449
relative viability (LOU-NH91; first compound 1.265 µM): 0.396
relative viability (NCI-H2228; first compound 0.04 µM): 0.908
relative viability (NCI-H2228; first compound 0.1265 µM): 0.954
relative viability (NCI-H2228; first compound 0.4 µM): 1.32
relative viability (NCI-H2228; first compound 1.265 µM): 0.414
relative viability (HCC-827; first compound 0.04 µM): 0.982
relative viability (HCC-827; first compound 0.1265 µM): 1.18
relative viability (HCC-827; first compound 0.4 µM): 1.02
relative viability (HCC-827; first compound 1.265 µM): 0.884
relative viability (EKVX; first compound 0.04 µM): 1.01
relative viability (EKVX; first compound 0.1265 µM): 0.873
relative viability (EKVX; first compound 0.4 µM): 1.03
relative viability (EKVX; first compound 1.265 µM): 0.728
relative viability (NCI-H647; first compound 0.04 µM): 0.896
relative viability (NCI-H647; first compound 0.1265 µM): 1.19
relative viability (NCI-H647; first compound 0.4 µM): 1.3
relative viability (NCI-H647; first compound 1.265 µM): 0.772
relative viability (NCI-H2405; first compound 0.04 µM): 0.989
relative viability (NCI-H2405; first compound 0.1265 µM): 1.03
relative viability (NCI-H2405; first compound 0.4 µM): 0.916
relative viability (NCI-H2405; first compound 1.265 µM): 0.819

NC(=O)Nc1cc(-c2cccc(F)c2)sc1C(=O)N[C@H]1CCCNC1 [AZD7762] + CC(C)C[C@H](NC(=O)[C@H](Cc1ccccc1)NC(=O)c1cnccn1)B(O)O [Bortezomib] (partner 0.002 µM)
relative viability (NCI-H1792; first compound 0.01 µM): 0.982
relative viability (NCI-H1792; first compound 0.03162 µM): 0.941
relative viability (NCI-H1792; first compound 0.1 µM): 0.925
relative viability (NCI-H1792; first compound 0.3162 µM): 1.01
relative viability (NCI-H1792; first compound 1 µM): 1.04
relative viability (NCI-H1734; first compound 0.01 µM): 0.912
relative viability (NCI-H1734; first compound 0.03162 µM): 1.04
relative viability (NCI-H1734; first compound 0.1 µM): 0.963
relative viability (NCI-H1734; first compound 0.3162 µM): 0.821
relative viability (NCI-H1734; first compound 1 µM): 0.527
relative viability (HCC-366; first compound 0.01 µM): 1.1
relative viability (HCC-366; first compound 0.03162 µM): 1.04
relative viability (HCC-366; first compound 0.1 µM): 1.03
relative viability (HCC-366; first compound 0.3162 µM): 0.62
relative viability (HCC-366; first compound 1 µM): 0.0941
relative viability (NCI-H2087; first compound 0.01 µM): 0.88
relative viability (NCI-H2087; first compound 0.03162 µM): 0.851
relative viability (NCI-H2087; first compound 0.1 µM): 0.792
relative viability (NCI-H2087; first compound 0.3162 µM): 0.972
relative viability (NCI-H2087; first compound 1 µM): 1.01
relative viability (NCI-H661; first compound 0.01 µM): 0.828
relative viability (NCI-H661; first compound 0.03162 µM): 0.938
relative viability (NCI-H661; first compound 0.1 µM): 0.766
relative viability (NCI-H661; first compound 0.3162 µM): 0.681
relative viability (NCI-H661; first compound 1 µM): 0.382
relative viability (BEN; first compound 0.01 µM): 0.902
relative viability (BEN; first compound 0.03162 µM): 0.758
relative viability (BEN; first compound 0.1 µM): 0.888
relative viability (BEN; first compound 0.3162 µM): 0.821
relative viability (BEN; first compound 1 µM): 0.636
relative viability (NCI-H2009; first compound 0.01 µM): 0.904
relative viability (NCI-H2009; first compound 0.03162 µM): 1.13
relative viability (NCI-H2009; first compound 0.1 µM): 1.08
relative viability (NCI-H2009; first compound 0.3162 µM): 0.839
relative viability (NCI-H2009; first compound 1 µM): 0.794
relative viability (SK-LU-1; first compound 0.01 µM): 1.34
relative viability (SK-LU-1; first compound 0.03162 µM): 1.05
relative viability (SK-LU-1; first compound 0.1 µM): 0.853
relative viability (SK-LU-1; first compound 0.3162 µM): 0.36
relative viability (SK-LU-1; first compound 1 µM): 0.269
relative viability (NCI-H596; first compound 0.01 µM): 1.02
relative viability (NCI-H596; first compound 0.03162 µM): 0.896
relative viability (NCI-H596; first compound 0.1 µM): 1.13
relative viability (NCI-H596; first compound 0.3162 µM): 1.2
relative viability (NCI-H596; first compound 1 µM): 1.03
relative viability (HARA; first compound 0.01 µM): 1.08
relative viability (HARA; first compound 0.03162 µM): 1.11
relative viability (HARA; first compound 0.1 µM): 1.14
relative viability (HARA; first compound 0.3162 µM): 1.13
relative viability (HARA; first compound 1 µM): 0.42
relative viability (LC-2-ad; first compound 0.01 µM): 1.04
relative viability (LC-2-ad; first compound 0.03162 µM): 1.14
relative viability (LC-2-ad; first compound 0.1 µM): 0.975
relative viability (LC-2-ad; first compound 0.3162 µM): 0.909
relative viability (LC-2-ad; first compound 1 µM): 0.732
relative viability (NCI-H1437; first compound 0.01 µM): 0.407
relative viability (NCI-H1437; first compound 0.03162 µM): 0.4
relative viability (NCI-H1437; first compound 0.1 µM): 0.56
relative viability (NCI-H1437; first compound 0.3162 µM): 0.58
relative viability (NCI-H1437; first compound 1 µM): 0.433
relative viability (NCI-H1355; first compound 0.01 µM): 1.17
relative viability (NCI-H1355; first compound 0.03162 µM): 1.23
relative viability (NCI-H1355; first compound 0.1 µM): 1.21
relative viability (NCI-H1355; first compound 0.3162 µM): 1.27
relative viability (NCI-H1355; first compound 1 µM): 1.19
relative viability (LOU-NH91; first compound 0.01 µM): 0.558
relative viability (LOU-NH91; first compound 0.03162 µM): 0.462
relative viability (LOU-NH91; first compound 0.1 µM): 0.487
relative viability (LOU-NH91; first compound 0.3162 µM): 0.548
relative viability (LOU-NH91; first compound 1 µM): 0.522
relative viability (NCI-H2228; first compound 0.01 µM): 1.04
relative viability (NCI-H2228; first compound 0.03162 µM): 1.33
relative viability (NCI-H2228; first compound 0.1 µM): 1.03
relative viability (NCI-H2228; first compound 0.3162 µM): 0.723
relative viability (NCI-H2228; first compound 1 µM): 0.389
relative viability (HCC-827; first compound 0.01 µM): 1.02
relative viability (HCC-827; first compound 0.03162 µM): 1.05
relative viability (HCC-827; first compound 0.1 µM): 1.16
relative viability (HCC-827; first compound 0.3162 µM): 1.08
relative viability (HCC-827; first compound 1 µM): 0.929
relative viability (EKVX; first compound 0.01 µM): 0.996
relative viability (EKVX; first compound 0.03162 µM): 1.04
relative viability (EKVX; first compound 0.1 µM): 0.974
relative viability (EKVX; first compound 0.3162 µM): 0.912
relative viability (EKVX; first compound 1 µM): 0.688
relative viability (NCI-H647; first compound 0.01 µM): 1.15
relative viability (NCI-H647; first compound 0.03162 µM): 1.08
relative viability (NCI-H647; first compound 0.1 µM): 0.919
relative viability (NCI-H647; first compound 0.3162 µM): 0.634
relative viability (NCI-H647; first compound 1 µM): 0.0894
relative viability (NCI-H2405; first compound 0.01 µM): 0.933
relative viability (NCI-H2405; first compound 0.03162 µM): 0.982
relative viability (NCI-H2405; first compound 0.1 µM): 0.963
relative viability (NCI-H2405; first compound 0.3162 µM): 0.943
relative viability (NCI-H2405; first compound 1 µM): 0.796
